*1 amine or outer side, *2 acyl side, *3 side chain or, on linkers, in order; H or OH if unused. Where a SMILES comes first, the peptide text is derived from it. Side-chain parts run from the residue outwards. [ ]: non-standard residue; d: D form. The star is where a group is joined. C20 diacid = O=C(O)CCCCCCCCCCCCCCCCCCC(=O)*; C18 diacid = O=C(O)CCCCCCCCCCCCCCCCC(=O)*; αMePhe(2-F) = C[C@](N)(Cc1ccccc1F)C(=O)O; γGlu = O=C(O)[C@H](CCC(=O)[*:2])N[*:1]; αMeF = C[C@](N)(Cc1ccccc1)C(=O)O; 4Pal = N[C@@H](Cc1ccncc1)C(=O)O; αMeL = CC(C)C[C@](C)(N)C(=O)O; AEEA = NCCOCCOCC(=O)O; Aib = CC(C)(N)C(=O)O
Molecular target: T1, human GLP-1R (Homo sapiens, UniProt P43220)
T1 construct: expressed in transfected cells; crude membranes
Test: [125I]-GLP-1 binding, SPA with WGA beads, 0.1% bacitracin
Settings: geometric mean, read-out: hGLP1R Ki
Outline: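 Binding buffer was 25 mM HEPES pH 7.4 with 2.5 mM CaCl2, 1 mM MgCl2, 0.1% (w/v) bacitracin, 0.003% Tween-20 and EDTA-free protease inhibitors. Four-parameter regression gave IC50, converted to Ki (geometric mean, SEM, n independent days).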

T1 sequence (P43220 24-463): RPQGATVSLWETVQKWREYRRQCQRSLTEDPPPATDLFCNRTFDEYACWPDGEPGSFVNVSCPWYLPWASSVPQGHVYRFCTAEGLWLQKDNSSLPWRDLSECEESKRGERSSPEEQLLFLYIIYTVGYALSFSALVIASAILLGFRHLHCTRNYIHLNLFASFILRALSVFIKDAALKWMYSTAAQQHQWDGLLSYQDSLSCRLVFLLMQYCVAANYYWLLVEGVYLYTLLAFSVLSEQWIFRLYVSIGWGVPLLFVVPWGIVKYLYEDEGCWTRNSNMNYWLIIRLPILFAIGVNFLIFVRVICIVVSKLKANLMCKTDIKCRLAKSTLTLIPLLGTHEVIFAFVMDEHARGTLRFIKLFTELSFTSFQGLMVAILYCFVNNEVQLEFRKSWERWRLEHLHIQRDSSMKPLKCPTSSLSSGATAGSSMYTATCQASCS

| SMILES | Ki [µM] |
| --- | --- |
| CC[C@H](C)[C@H](NC(=O)[C@H](CO)NC(=O)[C@H](Cc1ccc(O)cc1)NC(=O)[C@H](CC(=O)O)NC(=O)[C@H](CO)NC(=O)[C@@H](NC(=O)[C@H](Cc1ccccc1)NC(=O)[C@@H](NC(=O)CNC(=O)[C@H](CCC(=O)O)NC(=O)[C@@H](C)NC(=O)[C@@H](N)Cc1ccc(O)cc1)[C@@H](C)O)[C@@H](C)CC)C(=O)N[C@@H](CC(C)C)C(=O)N[C@@H](CC(C)C)C(=O)N[C@@H](CC(=O)O)C(=O)N[C@@H](CCCCN)C(=O)N[C@@H](CCCCNC(=O)COCCOCCNC(=O)COCCOCCNC(=O)CC[C@H](NC(=O)CCCCCCCCCCCCCCCCCCC(=O)O)C(=O)O)C(=O)N[C@@H](Cc1c[nH]cn1)C(=O)N[C@@H](CCC(N)=O)C(=O)N[C@@H](CCC(N)=O)C(=O)N[C@@H](CC(=O)O)C(=O)N[C@@H](Cc1ccccc1)C(=O)N[C@H](C(=O)N[C@@H](CC(N)=O)C(=O)N[C@@H](Cc1c[nH]c2ccccc12)C(=O)N[C@@H](CC(C)C)C(=O)N[C@@H](CC(C)C)C(=O)N[C@@H](C)C(=O)NCC(=O)NCC(=O)N1CCC[C@H]1C(=O)N[C@@H](CO)C(=O)N[C@@H](CO)C(=O)NCC(=O)N[C@@H](C)C(=O)N1CCC[C@H]1C(=O)N1CCC[C@H]1C(=O)N1CCC[C@H]1C(=O)N[C@@H](CO)C(N)=O)C(C)C [Example 10] (H-Y[dA]EGTFISDYSILLDKK([AEEA-AEEA-γGlu-C20 diacid])HQQDFVNWLLAGGPSSGAPPPS-NH2) | 0.0607 |
| CC[C@H](C)[C@H](NC(=O)[C@H](CC(C)C)NC(=O)[C@@H](NC(=O)CNC(=O)[C@H](CCC(=O)O)NC(=O)C(C)(C)NC(=O)[C@@H](N)Cc1ccc(O)cc1)[C@@H](C)O)C(=O)N[C@@H](CO)C(=O)N[C@@H](CC(=O)O)C(=O)N[C@@H](Cc1ccc(O)cc1)C(=O)N[C@@H](CO)C(=O)N[C@H](C(=O)N[C@@](C)(CC(C)C)C(=O)N[C@@H](CC(C)C)C(=O)N[C@@H](CC(=O)O)C(=O)N[C@@H](CCCCN)C(=O)N[C@@H](CCCCNC(=O)COCCOCCNC(=O)COCCOCCNC(=O)CC[C@H](NC(=O)CCCCCCCCCCCCCCCCCCC(=O)O)C(=O)O)C(=O)N[C@@H](Cc1c[nH]cn1)C(=O)N[C@@H](CCC(N)=O)C(=O)NC(C)(C)C(=O)N[C@@H](CC(=O)O)C(=O)N[C@@H](Cc1ccccc1)C(=O)N[C@H](C(=O)N[C@@H](CCC(=O)O)C(=O)N[C@@H](Cc1ccncc1)C(=O)N[C@@H](CC(C)C)C(=O)N[C@@H](CC(C)C)C(=O)N[C@@H](CCC(=O)O)C(=O)N[C@@H](C)C(=O)NCC(=O)N1CCC[C@H]1C(=O)N[C@@H](CO)C(=O)N[C@@H](CO)C(=O)NCC(=O)N[C@@H](C)C(=O)N1CCC[C@H]1C(=O)N1CCC[C@H]1C(=O)N1CCC[C@H]1C(=O)N[C@@H](CO)C(N)=O)C(C)C)[C@@H](C)CC [Example 89] (H-Y[Aib]EGTLISDYSI[αMeL]LDKK([AEEA-AEEA-γGlu-C20 diacid])HQ[Aib]DFVE[4Pal]LLEAGPSSGAPPPS-NH2) | 0.294 |
| CC[C@H](C)[C@H](NC(=O)[C@H](CO)NC(=O)[C@H](Cc1ccc(O)cc1)NC(=O)[C@H](CC(=O)O)NC(=O)[C@H](CO)NC(=O)[C@@H](NC(=O)[C@](C)(Cc1ccccc1F)NC(=O)[C@@H](NC(=O)CNC(=O)[C@H](CCC(=O)O)NC(=O)C(C)(C)NC(=O)[C@@H](N)Cc1ccc(O)cc1)[C@@H](C)O)[C@@H](C)CC)C(=O)N[C@@H](C)C(=O)N[C@@H](CC(C)C)C(=O)N[C@@H](CC(=O)O)C(=O)N[C@@H](CCCCN)C(=O)N[C@H](C(=O)N[C@@H](Cc1c[nH]cn1)C(=O)N[C@@H](CCC(N)=O)C(=O)NC(C)(C)C(=O)N[C@@H](CC(=O)O)C(=O)N[C@@H](Cc1ccccc1)C(=O)N[C@H](C(=O)N[C@@H](CCC(=O)O)C(=O)N[C@@H](Cc1ccncc1)C(=O)N[C@@H](CCCCNC(=O)COCCOCCNC(=O)COCCOCCNC(=O)CC[C@H](NC(=O)CCCCCCCCCCCCCCCCCCC(=O)O)C(=O)O)C(=O)N[C@@H](CC(C)C)C(=O)N[C@@H](CCC(=O)O)C(=O)N[C@@H](CCC(N)=O)C(=O)NCC(=O)N1CCC[C@H]1C(=O)N[C@@H](CO)C(=O)N[C@@H](CO)C(=O)NCC(=O)N[C@@H](C)C(=O)N1CCC[C@H]1C(=O)N1CCC[C@H]1C(=O)N1CCC[C@H]1C(=O)N[C@@H](CO)C(N)=O)C(C)C)[C@@H](C)CC [Example 114] (H-Y[Aib]EGT[αMePhe(2-F)]ISDYSIALDKIHQ[Aib]DFVE[4Pal]K([AEEA-AEEA-γGlu-C20 diacid])LEQGPSSGAPPPS-NH2) | > 0.921 |
| CC[C@H](C)[C@H](NC(=O)[C@H](CO)NC(=O)[C@H](Cc1ccc(O)cc1)NC(=O)[C@H](CC(=O)O)NC(=O)[C@H](CO)NC(=O)[C@@H](NC(=O)[C@H](Cc1ccccc1)NC(=O)[C@@H](NC(=O)CNC(=O)[C@H](CCC(=O)O)NC(=O)[C@@H](C)NC(=O)[C@@H](N)Cc1ccc(O)cc1)[C@@H](C)O)[C@@H](C)CC)C(=O)N[C@@H](CC(C)C)C(=O)N[C@@H](CC(C)C)C(=O)N[C@@H](CC(=O)O)C(=O)N[C@@H](CCCCN)C(=O)N[C@@H](CCCCNC(=O)COCCOCCNC(=O)COCCOCCNC(=O)CC[C@H](NC(=O)CCCCCCCCCCCCCCCCCCC(=O)O)C(=O)O)C(=O)N[C@@H](C)C(=O)N[C@@H](CCC(N)=O)C(=O)N[C@@H](CCC(N)=O)C(=O)N[C@@H](CC(=O)O)C(=O)N[C@@H](Cc1ccccc1)C(=O)N[C@H](C(=O)N[C@@H](CC(N)=O)C(=O)N[C@@H](Cc1c[nH]c2ccccc12)C(=O)N[C@@H](CC(C)C)C(=O)N[C@@H](CC(C)C)C(=O)N[C@@H](C)C(=O)NCC(=O)NCC(=O)N1CCC[C@H]1C(=O)N[C@@H](CO)C(=O)N[C@@H](CO)C(=O)NCC(=O)N[C@@H](C)C(=O)N1CCC[C@H]1C(=O)N1CCC[C@H]1C(=O)N1CCC[C@H]1C(=O)N[C@@H](CO)C(N)=O)C(C)C [Example 12] (H-Y[dA]EGTFISDYSILLDKK([AEEA-AEEA-γGlu-C20 diacid])AQQDFVNWLLAGGPSSGAPPPS-NH2) | 0.0468 |
| CC[C@H](C)[C@H](NC(=O)[C@H](CO)NC(=O)[C@H](Cc1ccc(O)cc1)NC(=O)[C@H](CC(=O)O)NC(=O)[C@H](CO)NC(=O)[C@@H](NC(=O)[C@H](Cc1ccccc1)NC(=O)[C@@H](NC(=O)CNC(=O)[C@H](CCC(=O)O)NC(=O)[C@@H](C)NC(=O)[C@@H](N)Cc1ccc(O)cc1)[C@@H](C)O)[C@@H](C)CC)C(=O)N[C@@H](CC(C)C)C(=O)N[C@@H](CC(C)C)C(=O)N[C@@H](CC(=O)O)C(=O)N[C@@H](CCCCN)C(=O)N[C@@H](CCCCNC(=O)COCCOCCNC(=O)COCCOCCNC(=O)CC[C@H](NC(=O)CCCCCCCCCCCCCCCCC(=O)O)C(=O)O)C(=O)N[C@@H](C)C(=O)N[C@@H](CCC(N)=O)C(=O)NC(C)(C)C(=O)N[C@@H](CCC(=O)O)C(=O)N[C@@H](Cc1ccccc1)C(=O)N[C@H](C(=O)N[C@@H](CC(N)=O)C(=O)N[C@@H](Cc1c[nH]c2ccccc12)C(=O)N[C@@H](CC(C)C)C(=O)N[C@@H](CC(C)C)C(=O)N[C@@H](CCC(=O)O)C(=O)NCC(=O)NCC(=O)N1CCC[C@H]1C(=O)N[C@@H](CO)C(=O)N[C@@H](CO)C(=O)NCC(=O)N[C@@H](C)C(=O)N1CCC[C@H]1C(=O)N1CCC[C@H]1C(=O)N1CCC[C@H]1C(=O)N[C@@H](CO)C(N)=O)C(C)C [Example 28] (H-Y[dA]EGTFISDYSILLDKK([AEEA-AEEA-γGlu-C18 diacid])AQ[Aib]EFVNWLLEGGPSSGAPPPS-NH2) | 0.00646 |
| CC[C@H](C)[C@H](NC(=O)[C@H](Cc1ccccc1)NC(=O)[C@@H](NC(=O)CNC(=O)[C@H](CCC(=O)O)NC(=O)C(C)(C)NC(=O)[C@@H](N)Cc1ccc(O)cc1)[C@@H](C)O)C(=O)N[C@@H](CO)C(=O)N[C@@H](CC(=O)O)C(=O)N[C@@H](Cc1ccc(O)cc1)C(=O)N[C@@H](CO)C(=O)N[C@H](C(=O)NC(C)(C)C(=O)N[C@@H](CC(C)C)C(=O)N[C@@H](CC(=O)O)C(=O)N[C@@H](CCCCN)C(=O)N[C@@H](CCCCNC(=O)COCCOCCNC(=O)COCCOCCNC(=O)CC[C@H](NC(=O)CCCCCCCCCCCCCCCCC(=O)O)C(=O)O)C(=O)N[C@@H](Cc1c[nH]cn1)C(=O)N[C@@H](CCC(N)=O)C(=O)NC(C)(C)C(=O)N[C@@H](CC(=O)O)C(=O)N[C@@H](Cc1ccccc1)C(=O)N[C@H](C(=O)N[C@@H](CCC(=O)O)C(=O)N[C@@H](Cc1ccncc1)C(=O)N[C@@H](CC(C)C)C(=O)N[C@@H](CC(C)C)C(=O)N[C@@H](C)C(=O)NCC(=O)NCC(=O)N1CCC[C@H]1C(=O)N[C@@H](CO)C(=O)N[C@@H](CO)C(=O)NCC(=O)N[C@@H](C)C(=O)N1CCC[C@H]1C(=O)N1CCC[C@H]1C(=O)N1CCC[C@H]1C(=O)N[C@@H](CO)C(N)=O)C(C)C)[C@@H](C)CC [Example 24] | 0.729 |
| CC[C@H](C)[C@H](NC(=O)[C@H](CO)NC(=O)[C@H](Cc1ccc(O)cc1)NC(=O)[C@H](CC(=O)O)NC(=O)[C@H](CO)NC(=O)[C@@H](NC(=O)[C@](C)(Cc1ccccc1)NC(=O)[C@@H](NC(=O)CNC(=O)[C@H](CCC(=O)O)NC(=O)C(C)(C)NC(=O)[C@@H](N)Cc1ccc(O)cc1)[C@@H](C)O)[C@@H](C)CC)C(=O)N[C@@H](C)C(=O)N[C@@H](CC(C)C)C(=O)N[C@@H](CC(=O)O)C(=O)N[C@@H](CCCCN)C(=O)N[C@@H](CCCCNC(=O)COCCOCCNC(=O)COCCOCCNC(=O)CC[C@H](NC(=O)CCCCCCCCCCCCCCCCCCC(=O)O)C(=O)O)C(=O)N[C@@H](Cc1c[nH]cn1)C(=O)N[C@@H](CCC(N)=O)C(=O)NC(C)(C)C(=O)N[C@@H](CCC(=O)O)C(=O)N[C@@H](Cc1ccccc1)C(=O)N[C@H](C(=O)N[C@@H](CC(N)=O)C(=O)N[C@@H](Cc1c[nH]c2ccccc12)C(=O)N[C@@H](CC(C)C)C(=O)N[C@@H](CC(C)C)C(=O)N[C@@H](C)C(=O)NCC(=O)NCC(=O)N1CCC[C@H]1C(=O)N[C@@H](CO)C(=O)N[C@@H](CO)C(=O)NCC(=O)N[C@@H](C)C(=O)N1CCC[C@H]1C(=O)N1CCC[C@H]1C(=O)N1CCC[C@H]1C(=O)N[C@@H](CO)C(N)=O)C(C)C [Example 25] (H-Y[Aib]EGT[αMeF]ISDYSIALDKK([AEEA-AEEA-γGlu-C20 diacid])HQ[Aib]EFVNWLLAGGPSSGAPPPS-NH2) | 0.0158 |

Source: patent US12723063B2, “GIPR-agonist compounds” (Eli Lilly and Company, priority 2019, dated 2026)
